From patent US20190216751A1, “Compositions and Methods for the Treatment and Prevention of Cancer” (California State University Northridge, priority 2017, published 2019)

Columns and labels:
MCF10CA1h cells = test: Chicken CAM xenograft, tumor weight and metastasis (human Alu qPCR); assay type: in vivo
Experimental: FIGS. 11A and 11B. […] Human triple negative MCF10CA1h breast cancer cells were pre-treated with TGFβ and fibronectin for 7 days to induce PEAK1-dependent epithelial-mesenchymal transition and tumorigenic potential. 1e6 cells were xenografted onto the chorioallantoic membrane of 10 day old chicken embryos in 20 uL of growth factor reduced Matrigel, and subsequently treated with a vehicle control, GC7, TubastatinA (TubA) or both GC7/TubA at either 1 uM (panel A) or 10 uM (panel B). Tumors were allowed to develop over the following 7 days and then harvested and weighed along with the indicated liver, lung and brain tissues. gDNA was isolated from these additional tissues to quantify human Alu repeat sequence composition normalized to host chicken GAPDH as a measure of relative cell metastasis to the indicated tissues.
Based on the partially impaired expression of Zeb1 in vitro, we wanted to assess whether this effect would result in altered metastatic dissemination using the in vivo chicken CAM system.

[1] = system: ZEB1 expression in 4T1 cells; test: qPCR ZEB1 mRNA, TGFβ-induced EMT; assay type: cell-based, mouse; conditions: for ZEB1 mRNA expression: GC7 10 μM pre-treatment
Description: The pathway in which the inventors are interested in targeting eIF5A is in the context of TGFβ-induced EMT and TGFβ is a well-characterized inducer of EMT. […] Phase-contrast images are shown to the right of the western blot to indicate a shift in morphology after treatment with TGFβ. […] Since TGFβ can induce PEAK1 upregulation, while in contrast, hypusinated eIF5A promotes PEAK1 translation, the inventors sought to see if TGFβ alone can upregulate hypusinated eIF5A. Post-translational modifications can occur relatively fast. Therefore short-term treatments of TGFβ on 4T1, 67NR and MCF10CA1a cells were performed initially. Protein lysates were collected after 10, 30 and 120 minutes of treatment and immunoblotted for hypusine, total eIF5A and β-actin (FIG. 4B). […] Relative band intensity is graphed to the right of the western blot in which the ratio between hypusine to total eIF5A is compared first between treated samples to control samples then a ratio is calculated comparing each time point relative to 10 minutes as a starting time point of reference. […] The inventors were also interested in what genes were altered at the transcriptional level when dual treating with TGFβ and GC7 at the same time to block EMT. To test for this, 4T1 and MCF10CA1a cells were plated on either plastic or fibronectin extra-cellular matrix (ECM) protein and pre-treated them with GC7 at 10 μM for 48 hours to ensure the eIF5A hypusination pathway is blocked. The inventors then treated with TGFβ at 2.5 ng/mL and collected RNA after 12 or 48 hours. […] Phase contrast images were also taken before RNA collection to show changes in morphology where EMT was either induced or reversed (FIG. 4C). […] Also, with the correct treatment time and conditions, inhibition of hypusination can block TGFβ-induced EMT.
Next, the inventors investigated whether blockade of HDAC6 and DHPS activity could further suppress TGFβ-induced EMT either independently or simultaneously. To test this, 4T1 cells were treated with either TubA at 10 μM, GC7 at 10 μM or both for 48 hours. At this time point, protein lysates were collected as well as phase-contrast images (FIGS. 6B and 6C). At that same time point, the media was changed and the cells were re-treated with the same drugs at the same concentrations; however, this time with the addition of TGFβ at 2.5 ng/mL. The inventors collected protein lysates and phase-contrast images just one day post TGFβ treatment, calling this the 72-hour time point (FIGS. 6B and 6C). In addition, the inventors collected mRNA, protein lysates, phase-contrast and immunofluorescences images two days post TGFβ treatment, calling this the 96-hour time point (FIGS. 6A, 6B, 6C and 6D).
Cell lines were plated in a 6 well plate at 1e5 cells/mL and left to attach overnight. […]

[2] = system: eIF5A localization in MCF10CA1h cells; test: Immunofluorescence, subcellular localization of total eIF5A; assay type: cell-based, human; conditions: 1 and 10 μM GC7, 48 hours
Experimental: (§1) Thus, we interrogated the subcellular localization of eIF5A protein using immunofluorescent staining under control as well as 1 and 10 μM GC7 treatment conditions in triple negative breast cancer lines (FIGS. 12A and 12B).
(§2) Cells were plated at 1e4 cells/mL at 4 mL in a 6-well plate containing a sterile glass coverslip and allowed to attach overnight. Cells were then treated with appropriate inhibitors at indicated concentrations and time-points. Cells were first fixed using 4% paraformaldehyde for 20 minutes. Cells were then subjected to Triton-X to permeabilize the cells before treatment with specific antibodies in 2% BSA in PBS. After primary antibody incubation for 90 minutes, cells were washed with PBS three times before incubating with secondary antibodies in 2% BSA in PBS for 1 hour. Cells were again washed with PBS three times before set overnight staining with DAPI. Cells were then imaged using a Leica DMI6000 inverted microscope at 100× magnification.

[3] = system: eIF5A localization in MDA-MB-468 cells; test: as above; assay type: cell-based, human; conditions: 1 and 10 μM GC7, 48 hours
Experimental: as §1, §2

eIF5A = conditions: during GC7 treatment; cited from earlier work
[4] = 1 μM GC7, fibronectin and TGFβ pre-treated cells, 7 days

For N=C(N)NCCCCCCCN.O=S(=O)(O)O [GC7, N1-Guanyl-1,7-diaminoheptane], the “metastatic dissemination to lung” value (MCF10CA1h cells; [4]) was “significantly reduced”, the primary tumor mass (MCF10CA1h cells; [4]) was “unaffected” and the metastasis (MCF10CA1h cells; low doses of GC7 (1 uM, panel A)) was “reduces metastasis”. The “TGFβ-induced EMT, ZEB1 mRNA (qPCR)” value ([1]; 10 μM each drug, re-treated with TGFβ 2.5 ng/mL at 48 hours, 96-hour time point) was “failed to block TGFβ-induced EMT”, the “ZEB1 mRNA expression” value ([1]; TGFβ 2.5 ng/mL 12 hours, fibronectin) was “this effect was blocked on fibronectin” and the “ZEB1 mRNA expression” value ([1]; TGFβ 2.5 ng/mL 12 hours, plastic) was “decreased”. The “ZEB1 mRNA expression” value ([1]; TGFβ 2.5 ng/mL 48 hours) was “This effect was not seen after 48 hours”, the “nuclear depletion of eIF5A” value [2] was “Nuclear depletion of eIF5A was observed” and the “nuclear depletion of eIF5A” value [3] was “this change was significant only in the case of MDA-MB-468 cells”. For the same compound, the “FOXP3+ regulatory T cells at the site of the tumor” value (eIF5A) was “significantly increased”, the “pancreatic and splenic CD8+ lymphocytes” value (eIF5A) was “did not seem to be affected” and the “recruitment of CD4+ T cells at the site of the tumor” value (eIF5A) was “significantly decrease”.
